Activity calls are given as the source filed them. The calls are words filed in the database; no cut-off is given here.
Experiments:
[1] = target: DNA polymerase beta (Homo sapiens) (UniProt P06746); test: Binding affinity to human DNA polymerase beta with methyl-lysine modification at 72 assessed as inhibition of dRP excision in presence of 32P-end labelled duplex DNA at 25 uM by SDS PAGE
[2] = target: DNA polymerase beta (Rattus norvegicus) (UniProt P06766); test: Binding affinity to wild type rat DNA polymerase beta assessed as inhibition of dRP excision in presence of 32P-end labelled duplex DNA at 50 uM by SDS PAGE analysis
[3] = target: DNA polymerase beta (Rattus norvegicus) (UniProt P06766); test: Binding affinity to rat DNA polymerase beta with methyl-lysine modification at 72 assessed as inhibition of dRP excision in presence of 32P-end labelled duplex DNA at 50 uM by SDS PAGE
[4] = target: DNA polymerase beta (Homo sapiens) (UniProt P06746); test: Binding affinity to human DNA polymerase beta with homo-lysine modification at 72 assessed as inhibition of dRP excision in presence of 32P-end labelled duplex DNA at 25 uM by SDS PAGE
[5] = target: DNA polymerase beta (Homo sapiens) (UniProt P06746); test: Binding affinity to wild type human DNA polymerase beta assessed as inhibition of dRP excision in presence of 32P-end labelled duplex DNA at 25 uM by SDS PAGE analysis
[6] = target: DNA polymerase beta (Rattus norvegicus) (UniProt P06766); test: Binding affinity to rat DNA polymerase beta with homo-lysine modification at 72 assessed as inhibition of dRP excision in presence of 32P-end labelled duplex DNA at 50 uM by SDS PAGE
[7] = target: DNA polymerase beta (Rattus norvegicus) (UniProt P06766); test: Binding affinity to rat DNA polymerase beta with methyl-lysine modification at 72 assessed as inhibition of dRP excision in presence of 32P-end labelled duplex DNA at 25 uM by SDS PAGE
[8] = target: DNA polymerase beta (Rattus norvegicus) (UniProt P06766); test: Binding affinity to wild type rat DNA polymerase beta assessed as inhibition of dRP excision in presence of 32P-end labelled duplex DNA at 25 uM by SDS PAGE analysis
[9] = target: DNA polymerase beta (Rattus norvegicus) (UniProt P06766); test: Binding affinity to rat DNA polymerase beta with homo-lysine modification at 72 assessed as inhibition of dRP excision in presence of 32P-end labelled duplex DNA at 25 uM by SDS PAGE
[10] = target: DNA polymerase beta (Rattus norvegicus) (UniProt P06766); test: Binding affinity to rat DNA polymerase beta with homo-lysine modification at 72 assessed as inhibition of dRP excision in presence of 32P-end labelled duplex DNA at 10 uM by SDS PAGE
[11] = target: DNA polymerase beta (Rattus norvegicus) (UniProt P06766); test: Binding affinity to wild type rat DNA polymerase beta assessed as inhibition of dRP excision in presence of 32P-end labelled duplex DNA at 10 uM by SDS PAGE analysis
[12] = target: DNA polymerase beta (Rattus norvegicus) (UniProt P06766); test: Binding affinity to rat DNA polymerase beta with methyl-lysine modification at 72 assessed as inhibition of dRP excision in presence of 32P-end labelled duplex DNA at 10 uM by SDS PAGE

Row | Structure (SMILES) | inhibition [1] | inhibition [2] | inhibition [3] | inhibition [4] | inhibition [5] | inhibition [6] | inhibition [7] | inhibition [8] | inhibition [9] | inhibition [10] | inhibition [11] | inhibition [12]
1 | CC[C@H](CC[C@@H](C)[C@H]1CC[C@H]2[C@@H]3CCC4C[C@@H](OC(=O)c5ccccc5)CC[C@]4(C)[C@H]3CC[C@]12C)C(C)C (some centres not stated) | Active | Active | Active | Active | Active | Active |  |  |  |  |  | 
2 | O=C(O)c1ccc(O)c(O)c1 | Active | 50% | 50% | Active | Active | 25% |  |  |  |  |  | 
3 | CC[C@H](/C=C/[C@@H](C)[C@H]1CC[C@H]2[C@@H]3CC=C4C[C@@H](O)CC[C@]4(C)[C@H]3CC[C@]12C)C(C)C | Active | Active | Active | Active | Active | Active |  |  |  |  |  | 
4 | CCCCCCCC[C@H]1O[C@H]1CCCCCCCC(=O)O (racemic) |  | Active | Active |  |  | inactive | Active | Active | inactive |  |  | 
5 | CCCCCCCCC(O)C(O)CCCCCCCC(=O)O (racemic) |  |  |  |  |  |  |  |  |  | Active | Active | Active

From ChEMBL document CHEMBL4665737, “An assay for DNA polymerase β lyase inhibitors that engage the catalytic nucleophile for binding” (Bioorg Med Chem, 2020)
